Experimental data as given in patent US20120045393A1 (priority 2009, published 2012).
Like-named read-outs stand apart in the source and are kept apart here. Non-standard residues stand in square brackets, D forms with d. Residues, ends and D or L forms follow the SMILES beside them. *: point of attachment. DOTA = O=C(O)CN1CCN(CC(=O)O)CCN(CC(=O)*)CCN(CC(=O)O)CC1; Bpa = N[C@@H](Cc1ccc(C(=O)c2ccccc2)cc1)C(=O)O; d2Nal = N[C@H](Cc1ccc2ccccc2c1)C(=O)O; azaGly = NNC(=O)O; Sar = CNCC(=O)O

System: LHRH binding sites on human ovarian cancer cells (EFO-27)
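Also: Cell-associated radioactivity on confluent EFO-27 monolayers in 96-well plates, measured by microplate scintillation counting.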

| Molecule | EC50 [µM] | also measured |
| --- | --- | --- |
| BRU-2994: DO3A10CM-Dnal2-R-W-S-H-r-W-Bpa4-Flp4-azaG | – | EC50 (Table 19: analogs used in the stabilization studies): 0.6 µM; EC50 (read-out: EC50 μM, Underivatized LHRH peptides and LHRH peptides with chelator on N-terminus, EFO-27 cells): 0.6 µM |
| NCCCC[C@@H](NC(=O)[C@H](Cc1c[nH]cn1)NC(=O)[C@H](CO)NC(=O)[C@H](Cc1c[nH]c2ccccc12)NC(=O)[C@H](Cc1c[nH]cn1)NC(=O)[C@@H]1CCC(=O)N1)C(=O)N[C@@H](Cc1c[nH]c2ccccc12)C(=O)N[C@@H](Cc1ccc(O)cc1)C(=O)N1CCC[C@H]1C(=O)NNC(N)=O [BRU-2437] (HELM PEPTIDE1{[Glp].H.W.S.H.[dK].W.Y.P.[O=C(NN[*:1])[*:2]].[am]}$$$$V2.0) | 8.54 | – |
| C[C@@H](NC(=O)[C@H](Cc1c[nH]cn1)NC(=O)[C@H](CO)NC(=O)[C@H](Cc1c[nH]c2ccccc12)NC(=O)[C@H](Cc1c[nH]cn1)NC(=O)CN(C)C(=O)CN1CCN(CC(=O)O)CCN(CC(=O)O)CCN(CC(=O)O)CC1)C(=O)N[C@@H](Cc1c[nH]c2ccccc12)C(=O)N[C@@H](Cc1ccc(C(=O)c2ccccc2)cc1)C(=O)N1CCC[C@H]1C(=O)NNC(N)=O [compound 2672] ({DOTA}-[Sar]HWSH[dA]W[Bpa]P[azaGly]-NH2) | – | EC50 (EFO-27 cells, competition with [125I-Tyr8]BRU-2477, 90 min): 14 µM |
| CN(CC(=O)N[C@@H](Cc1ccc(O)cc1)C(=O)N[C@@H](Cc1c[nH]c2ccccc12)C(=O)N[C@@H](CO)C(=O)N[C@@H](Cc1c[nH]cn1)C(=O)N[C@H](CCCNC(=N)N)C(=O)N[C@@H](Cc1c[nH]c2ccccc12)C(=O)N[C@@H](Cc1ccc(C(=O)c2ccccc2)cc1)C(=O)N1CCC[C@H]1C(=O)NNC(N)=O)C(=O)CN1CCN(CC(=O)O)CCN(CC(=O)O)CCN(CC(=O)O)CC1 [BRU-2814] ({DOTA}-[Sar]YWSH[dR]W[Bpa]P[azaGly]-NH2) | – | EC50 (Table 5: modifications of amino acids at positions 1 and 2, in vitro binding on EFO-27 cells): 2.24 µM |
| COCCN(CC(=O)N[C@@H](Cc1c[nH]cn1)C(=O)N[C@@H](Cc1c[nH]c2ccccc12)C(=O)N[C@@H](CO)C(=O)N[C@@H](Cc1c[nH]cn1)C(=O)N[C@H](CCCNC(=N)N)C(=O)N[C@@H](Cc1c[nH]c2ccccc12)C(=O)N[C@@H](Cc1ccc(C(=O)c2ccccc2)cc1)C(=O)N1CCC[C@H]1C(=O)NNC(N)=O)C(=O)CNC(=O)CN1CCN(CC(=O)O)CCN(CC(=O)O)CCN(CC(=O)O)CC1 [compound 2796] | – | EC50 (Table 8: N-substituted amino acid at position 1 and Gly as linker, in vitro binding on EFO-27 cells): 0.34 µM |
| CNCC(=O)N[C@@H](Cc1c[nH]cn1)C(=O)N[C@@H](Cc1c[nH]c2ccccc12)C(=O)N[C@@H](CO)C(=O)N[C@@H](Cc1cnc[nH]1)C(=O)N[C@H](CCCNC(=N)N)C(=O)N[C@@H](Cc1c[nH]c2ccccc12)C(=O)N[C@@H](Cc1ccc(C(=O)c2ccccc2)cc1)C(=O)N1CCC[C@H]1C(=O)NNC(N)=O [BRU-2441, Sar-His-Trp-Ser-His-Darg-Trp-Bpa-Pro-azaGly-NH2] | – | times more potent than the comparator analog (BRU-2441 vs BRU-2439, BRU-2666 vs Sar1 analog, BRU-3072 vs Pro9 analog): ~2 |
| CNCC(=O)N[C@@H](CCCNC(=N)N)C(=O)N[C@@H](Cc1c[nH]c2ccccc12)C(=O)N[C@@H](CO)C(=O)N[C@@H](Cc1c[nH]cn1)C(=O)N[C@H](CCCNC(=N)N)C(=O)N[C@@H](Cc1c[nH]c2ccccc12)C(=O)N[C@@H](Cc1ccc(C(=O)c2ccccc2)cc1)C(=O)N1CCC[C@H]1CNC(=O)CN1CCN(CC(=O)O)CCN(CC(=O)O)CCN(CC(=O)O)CC1 [compound 3117] (HELM PEPTIDE1{[Sar].R.W.S.H.[dR].W.[O=C(c1ccccc1)c1ccc(C[C@H](N[*:1])C(=O)[*:2])cc1].[O=C(O)CN1CCN(CC(=O)O)CCN(CC(=O)NC[C@@H]2CCCN2[*:1])CCN(CC(=O)O)CC1]}$$$$V2.0; N-terminus assumed) | – | EC50 (Table 15: C-terminus chelator-functionalized peptides, EFO-27 cells, vs [125I-Tyr8]BRU-2477): 0.34 µM |

Continued, in another order:

| EC50 [µM] | Molecule | also measured |
| --- | --- | --- |
| 1.9 | CN(CC(=O)N[C@@H](Cc1c[nH]cn1)C(=O)N[C@@H](Cc1c[nH]c2ccccc12)C(=O)N[C@@H](CO)C(=O)N[C@@H](Cc1c[nH]cn1)C(=O)N[C@H](CCCNC(=N)N)C(=O)N[C@@H](Cc1c[nH]c2ccccc12)C(=O)N[C@@H](Cc1ccc(C(=NO)c2ccccc2)cc1)C(=O)N1CCC[C@H]1C(=O)NNC(N)=O)C(=O)CN1CCN(CC(=O)O)CCN(CC(=O)O)CCN(CC(=O)O)CC1 [BRU-2907] | – |
| 1.21 | CC(C)C[C@H](NC(=O)[C@H](CO)NC(=O)[C@H](Cc1c[nH]c2ccccc12)NC(=O)[C@H](CCCNC(=N)N)NC(=O)[C@@H](Cc1ccc2ccccc2c1)NC(=O)CN1CCN(CC(=O)O)CCN(CC(=O)O)CCN(CC(=O)O)CC1)C(=O)N[C@H](CCCNC(=N)N)C(=O)N[C@@H](Cc1c[nH]c2ccccc12)C(=O)N[C@@H](Cc1ccc(C(=O)c2ccccc2)cc1)C(=O)N1CCC[C@H]1C(=O)NNC(N)=O [BRU-3029] ({DOTA}-[d2Nal]RWSL[dR]W[Bpa]P[azaGly]-NH2; C-terminus assumed) | – |
| ≤ 0.2 | CNCC(=O)N[C@@H](CCCNC(=N)N)C(=O)N[C@@H](Cc1c[nH]c2ccccc12)C(=O)N[C@@H](CO)C(=O)N[C@@H](Cc1c[nH]cn1)C(=O)N[C@H](CCCNC(=N)N)C(=O)N[C@@H](Cc1c[nH]c2ccccc12)C(=O)N[C@@H](Cc1ccc(C(=O)c2ccccc2)cc1)C(=O)N1CCC[C@H]1C(=O)NCCCN(C)CCCNC(=O)CN1CCN(CC(=O)O)CCN(CC(=O)O)CCN(CC(=O)O)CC1 [BRU-3045] | – |
| 1.09 | C[C@H](NC(=O)[C@H](CO)NC(=O)[C@H](Cc1c[nH]c2ccccc12)NC(=O)[C@H](CCCNC(=N)N)NC(=O)[C@@H](Cc1ccc2ccccc2c1)NC(=O)CN1CCN(CC(=O)O)CCN(CC(=O)O)CCN(CC(=O)O)CC1)C(=O)N[C@H](CCCNC(=N)N)C(=O)N[C@@H](Cc1c[nH]c2ccccc12)C(=O)N[C@@H](Cc1ccc(C(=O)c2ccccc2)cc1)C(=O)N1CCC[C@H]1C(=O)NNC(N)=O [compound 3028] ({DOTA}-[d2Nal]RWSA[dR]W[Bpa]P[azaGly]-NH2) | – |
| 17.4 | CN(CC(=O)N[C@@H](Cc1c[nH]cn1)C(=O)N[C@@H](Cc1c[nH]c2ccccc12)C(=O)N[C@@H](CO)C(=O)N[C@@H](Cc1c[nH]cn1)C(=O)N[C@H](CCCNC(=N)N)C(=O)N[C@@H](Cc1c[nH]c2ccccc12)C(=O)N[C@@H](Cc1cccnc1)C(=O)N1CCC[C@H]1C(=O)NNC(N)=O)C(=O)CN1CCN(CC(=O)O)CCN(CC(=O)O)CCN(CC(=O)O)CC1 [BRU-2726] | – |
| 0.93 | N=C(N)NCCC[C@H](NC(=O)[C@@H](Cc1ccc2ccccc2c1)NC(=O)CN1CCN(CC(=O)O)CCN(CC(=O)O)CCN(CC(=O)O)CC1)C(=O)N[C@@H](Cc1c[nH]c2ccccc12)C(=O)N[C@@H](CO)C(=O)N[C@@H](CCCNC(N)=O)C(=O)N[C@H](CCCNC(=N)N)C(=O)N[C@@H](Cc1c[nH]c2ccccc12)C(=O)N[C@@H](Cc1ccc(C(=O)c2ccccc2)cc1)C(=O)N1CCC[C@H]1C(=O)NNC(N)=O [BRU-3030] | – |
| 11.5 | N=C(N)NCCC[C@H](NC(=O)[C@@H](Cc1ccc2ccccc2c1)NC(=O)CN1CCN(CC(=O)O)CCN(CC(=O)O)CCN(CC(=O)O)CC1)C(=O)N[C@@H](Cc1c[nH]c2ccccc12)C(=O)N[C@@H](Cc1c[nH]c2ccccc12)C(=O)N[C@@H](Cc1c[nH]cn1)C(=O)N[C@H](CCCNC(=N)N)C(=O)N[C@@H](Cc1c[nH]c2ccccc12)C(=O)N[C@@H](Cc1ccc(C(=O)c2ccccc2)cc1)C(=O)N1CCC[C@H]1C(=O)NNC(N)=O [compound 3114] ({DOTA}-[d2Nal]RWWH[dR]W[Bpa]P[azaGly]-NH2) | – |
| 0.17 ± 0.07 | CNCC(=O)N[C@@H](CCCNC(=N)N)C(=O)N[C@@H](Cc1c[nH]c2ccccc12)C(=O)N[C@@H](CO)C(=O)N[C@@H](Cc1c[nH]cn1)C(=O)N[C@H](CCCNC(=N)N)C(=O)N[C@@H](Cc1c[nH]c2ccccc12)C(=O)N[C@@H](Cc1ccc(C(=O)c2ccccc2)cc1)C(=O)N1CCC[C@H]1C(=O)NCCNC(=O)CN1CCN(CC(=O)O)CCN(CC(=O)O)CCN(CC(=O)O)CC1 [compound 3103] | – |
